Experimental data as given in US20240254135A1, “POLYPHENOL COMPOUNDS” (Epirium Bio Inc., priority 2022, published 2024).

Key:
PGC-1α [1] = experiment: In vivo PGC-1α expression in liver of LPS-treated mice (ELISA); design: species or system C57BL/6 mice; conditions: for PGC-1α level / PGC-1α levels: liver, male C57BL/6 mice, LPS 3 mg/Kg IP + compound 10 mg/kg PO BID, 24 h post LPS; for PGC-1α levels: third set: Control 38327, LPS alone 16860
Experimental: C57BL/6 mice were procured from Vivo Bio Tech Ltd. Male mice were used for the study within an age range of 7 to 8 weeks. Body weight for these mice ranged from 20 g to 25 g. Animals were housed in a group of 6 in individually ventilated cages with temperature of 22±3° C., a relative humidity of 50 to 60%. The bottom of the cages was layered with sterilized corn cob. Animals were provided with gamma irradiated feed and autoclaved drinking water ad-libitum. The IVCs were maintained at an environment controlled (Centrally Air-Conditioned) room at a temperature of 22±3° C., a relative humidity of 50 to 60%, light intensity of 250-300 lux and a 12 hour light-dark cycle and noise intensity of <85 db.
Method of Preparation: LPS was dosed at 3 mg/kg in a dose volume of 10 ml/kg. For this, 0.3 mg/ml of LPS solution (Micronized suspension) was prepared. Butter paper was placed on analytical balance, tarred and LPS was placed on butter paper and its weight was noted down. LPS was transferred to 15 ml falcon tube. Then required amount of normal saline was added to it to make it 0.3 mg/ml. The solution was vortexed properly for 5 minutes and placed on ice. LPS solution was vortexed every time before aspiration and injection.
LPS was dosed at 3 mg/kg. Each test compound was dosed at 10 mg/kg, 2 hour and 15 min post LPS administration.
0.5% CMC was used as a vehicle with a dose volume of 10 ml/kg. An IP route was used for LPS, and a PO route was used for each test compound. Animals were sacrificed 24 hours post LPS dosing, and plasma were collected. PGC-1α level was measured in liver samples, and other tissues were stored for future analysis. PGC-1α level was checked using ELISA kit—CUSABIO Mouse PPARGCIA ELISA kit.
Protocol: One day before start of the experiment C57BL/6 Mice (Male, 6-7-week-old) were randomized on the basis of their body weight and were divided into groups. All the cages were assigned the respective group name. Animals inside each cage were marked on the base of the tails with permanent marker to distinguish each animal. Mice were fasted overnight. Next day morning animals were dosed with test item. Group 1 (Control) and Group 2 (LPS) Animals were dosed with vehicle (0.5% CMC). Test items were prepared in 0.5% CMC by trituration in mortar and pestle and addition of CMC drop by drop. 2 hour post test item/vehicle dosing animals were administered with LPS through IP route at 3 mg/kg of body weight. Group 1 (Control) animals were administered with saline. 0.25 hour post LPS administration, animals were again dosed with test item/vehicle. Post dosing, animals were returned to their respective cages and kept until termination of the study. No feed was offered to any group. Animals were provided with water. 24 hour post LPS administration, blood was collected from each animal under influence of mild isoflurane anesthesia through retro-orbital technique. Animals were sacrificed by CO2 asphyxiation technique. Post-termination, animals were dissected and vital organs, liver, brain, skeleton muscle were collected in Eppendorf tubes and flash frozen in liquid nitrogen. Serum was collected from whole blood by centrifuging it at 4° C. at 10,000 RPM and for 10 minutes. (Blood was left for 2 hour for coagulation before centrifugation) After completion of the experiment, all collected samples were stored at −80° C. until analysis.
Assay Methods/Protocol: The mortar was chilled with liquid nitrogen and then the small tissue pieces were grinded in the presence of liquid nitrogen to a fine powder. Immediately after grinding, transferred small amount of tissue powder to a 1.5 ml micro centrifuge tube containing 1.0 ml lysis buffer (RIPA buffer+Protease inhibitor). The samples were then incubated on ice for 2 hours. The samples were vortexed every 15 minutes. The samples were then centrifuged at 13000×g for 15 minutes at 2-8° C. After centrifugation the supernatant was removed carefully and pellet was discarded. […]

PGC-1α [2] = experiment: In vitro PGC-1α expression in differentiated C2C12 cells (cell ELISA); assay type: cell-based
Experimental: Culture conditions: DMEM containing 25 mM glucose with 10% FBS supplementation; grown at 37° C. and 5% CO2.
Drugs: (+)Epicatechin, AICAR (direct activator of AMPK).
Assay Conditions: C2C12 cells were cultured in DMEM supplemented in 10% FBS up to 80% confluence. The cells were further trypsinized and seeded into a 96 well plate at a density of 5000 cells/well (well volume—100 μL) (Day 0). Following attachment, the cells were allowed to reach 80-90% confluence in the plate (typically 48 hours post seeding) and further differentiated using DMEM+2% Horse Serum (200 μL/well). The media was changed every day or at least every alternate day for 5 days to allow myoblasts to differentiate into myotubes. On day 7 (post seeding), the cells were treated with standards and test compounds for PGC-1 α assay.
PGC-1α assay: For the detection of PGC-1α, the cells were incubated with 0.5 μg/ml primary antibody (Merck, WH0010891M3) in PBS-T containing 5% BSA at 4° C. overnight. The cells were then washed three times with PBS-T for 5 minutes and incubated with 1:1000 dilution secondary antibody (Anti-rabbit IgG, HRP-linked Antibody, Cell Signaling) in PBS-T with 1% BSA for 1 hour at RT. Cells were washed three times with PBS-T for 5 minutes The cells were incubated with 100 μl TMB substrate solution for 30 minutes and the reaction was stopped with 100 μl of 2N H2SO4. […] (For plate optical density calculations, a background correction was taken at 540 nm). The final PGC-1α activation % is average of activation of 6 replicates.

[3] = as E21, relative to Control = 100, LPS alone 51
[4] = as E23, relative to Control = 100, LPS alone 66
[5] = as E25, relative to Control = 100, LPS alone 44
[6] = first set: Control 35303, LPS alone 18139
[7] = second set: Control 25677, LPS alone 16956
[8] = Table 3, differentiated C2C12 cells, 0.001 nM, DMSO control = 100%, OD@650 nm

## Oc1cc(O)c2c(c1)O[C@H](c1ccc(O)c(O)c1)[C@H](O)C2 [Epicatechin, (+)Epicatechin, reference compound]
PGC-1α [1]; [3]
  PGC-1α level (%): 90%
PGC-1α [1]; [4]
  PGC-1α level (%): 122%
PGC-1α [1]; [5]
  PGC-1α level (%): 71%
PGC-1α [1]; [6]
  PGC-1α level: 31729 pg/mL
PGC-1α [1]; [7]
  PGC-1α level: 31225 pg/mL
PGC-1α [1]
  PGC-1α levels: 27272 pg/mL
PGC-1α [2]; [8]
  % Activity (PGC-1α expression): 119%
PGC-1α [2]; Table 4, differentiated C2C12 cells, 0.001 nM, OD at 5 minutes
  % Activity (PGC-1α expression): 120%
PGC-1α [2]; Table 5, differentiated C2C12, 5000 cells/well, 0.001 nM, DMSO = 100
  % Activity (PGC-1α expression): 133%
PGC-1α [2]; Table 6, C2C12 cells, 5000 cells/well, 0.001 nM
  % Activity (PGC-1α expression): 127%
PGC-1α [2]; Table 7, C2C12 cells, 5000 cells/well, 0.001 nM, DMSO = 100
  % Activity (PGC-1α expression): 133%
PGC-1α [2]; Table 8, C2C12 cells, 5000 cells/well, 0.001 nM, DMSO = 100
  % Activity (PGC-1α expression): 139%

## Oc1cc(O)c2c(c1)OC(c1ccc(O)c(F)c1)C(O)C2 (single isomer, unassigned) [Compound 76b, 2-(3-fluoro-4-hydroxyphenyl)chromane-3,5,7-triol]
PGC-1α [1]; [4]
  PGC-1α level (%): 81%
PGC-1α [1]; [7]
  PGC-1α level: 20790 pg/mL
PGC-1α [2]; Table 5, differentiated C2C12, 5000 cells/well, 0.01 nM, DMSO = 100
  % Activity (PGC-1α expression): 128%

## COc1cc(C2Oc3ccccc3CC2O)ccc1F (single isomer, unassigned) [Compound 75b, 2-(4-fluoro-3-methoxyphenyl)chroman-3-ol]
PGC-1α [1]; [3]
  PGC-1α level (%): 92%
PGC-1α [1]; [6]
  PGC-1α level: 32354 pg/mL
PGC-1α [2]; Table 3, differentiated C2C12 cells, 0.0001 nM, DMSO control = 100%
  % Activity (PGC-1α expression): 118%
PGC-1α [2]; [8]
  % Activity (PGC-1α expression): 125%
PGC-1α [2]; Table 3, differentiated C2C12 cells, 0.01 nM, DMSO control = 100%
  % Activity (PGC-1α expression): 122%
PGC-1α [2]; Table 3, differentiated C2C12 cells, 0.1 nM, DMSO control = 100%
  % Activity (PGC-1α expression): 116%
PGC-1α [2]; Table 3, differentiated C2C12 cells, 1 nM, DMSO control = 100%
  % Activity (PGC-1α expression): 120%
PGC-1α [2]; Table 4, differentiated C2C12 cells, 0.01 nM, OD at 5 minutes
  % Activity (PGC-1α expression): 130%

## Oc1cc(O)c2c(c1)OC(c1ccccc1)C(O)C2 (single isomer, unassigned) [Compound 78a, 2-phenylchromane-3,5,7-triol]
PGC-1α [1]; [5]
  PGC-1α level (%): 96%
PGC-1α [1]
  PGC-1α levels: 36967 pg/mL
PGC-1α [2]; Table 8, C2C12 cells, 5000 cells/well, 0.01 nM, DMSO = 100
  % Activity (PGC-1α expression): 128%

## Oc1ccc2c(c1)OC(c1ccc(O)c(C(F)(F)F)c1)C(O)C2 (single isomer, unassigned) [Compound 77b, 2-(4-hydroxy-3-(trifluoromethyl)phenyl)chromane-3,7-diol]
PGC-1α [1]; [4]
  PGC-1α level (%): 148%
PGC-1α [1]; [7]
  PGC-1α level: 37954 pg/mL
PGC-1α [2]; Table 6, C2C12 cells, 5000 cells/well, 0.01 nM
  % Activity (PGC-1α expression): 138%
PGC-1α [2]; Table 7, C2C12 cells, 5000 cells/well, 0.01 nM, DMSO = 100
  % Activity (PGC-1α expression): 135%
